Measured values as given in ChEMBL document CHEMBL1148811, “N-benzoylpyrazoles are novel small-molecule inhibitors of human neutrophil elastase” (J Med Chem, 2007).

Experiment: Chemical stability in aqueous buffer at PH 7.3 by spontaneous hydrolysis
Assay type: physicochemical

| SMILES | half-life |
| --- | --- |
| O=C(c1cc(F)ccc1Cl)n1cccn1 | 2.5 h |
| O=C(c1ccccc1Cl)n1cc(Cl)cn1 | 3 h |
| Cc1ccccc1C(=O)n1cccn1 | 1.2 h |
| O=C(c1cc(F)c(F)cc1Cl)n1cc(Br)cn1 | 0.73 h |
| CC(C)(C)c1ccc(C(=O)n2cc(Cl)cn2)cc1 | 2.2 h |
| Cc1nn(C(=O)c2ccccc2F)c(C)c1Cl | 5.3 h |
| O=C(c1ccc(F)cc1)n1cc(Cl)cn1 | 1.6 h |
| Cc1nn(C(=O)c2ccc(Cl)cc2)c(C)c1Cl | 2.6 h |
| Cc1nn(C(=O)c2ccccc2Br)c(C)c1Cl | 12.5 h |
| Cc1cc(C)n(C(=O)c2ccc(C)c(Br)c2)n1 | 25.1 h |
| Cc1nn(C(=O)c2ccc(Cl)cc2Cl)c(C)c1Cl | 7.2 h |
| Cc1nn(C(=O)c2ccc(Cl)c([N+](=O)[O-])c2)c(C)c1Cl | 2.2 h |
| Cc1ccccc1C(=O)n1cc([N+](=O)[O-])cn1 | 0.55 h |
| Cc1nn(C(=O)c2cccc(Br)c2)c(C)c1Br | 3.1 h |
| Cc1cc(C)n(C(=O)c2ccc(Cl)c(Cl)c2)n1 | 10 h |
| O=C(c1cccc([N+](=O)[O-])c1)n1cc(Cl)cn1 | 0.22 h |
| O=C(c1ccccc1)n1cc([N+](=O)[O-])cn1 | 0.04 h |

| SMILES | half-life |
| --- | --- |
| Cc1ccc(C(=O)n2cc(Br)cn2)cc1 | 2.1 h |
| O=C(c1ccc(Cl)c(Cl)c1)n1cccn1 | 1.1 h |
| Cc1ccc(C(=O)n2ccc([N+](=O)[O-])n2)cc1 | 0.1 h |
| O=C(c1ccccc1)n1ccc([N+](=O)[O-])n1 | 0.033 h |
| Cc1ccccc1C(=O)n1cc(Br)cn1 | 6.2 h |
| CC(=O)Nc1ccc(C(=O)n2ccc(C)n2)cc1 | 10 h |
| COC(=O)c1ccnn1C(=O)c1ccc(Cl)cc1 | 0.29 h |
| Cc1ccc(C(=O)c2ccn(C(=O)c3ccc(F)cc3)n2)c(C)c1 | 0.21 h |
| O=C(Nc1ccccc1)c1ccn(C(=O)c2ccccc2)n1 | 0.51 h |
| O=C(c1ccccc1Cl)n1cccn1 | 1.1 h |
| Cc1nn(C(=O)c2ccc(Cl)cc2)c(C)c1Br | 2.1 h |
| Cc1ccccc1C(=O)n1cc(Cl)cn1 | 4.2 h |
| Cc1cccc(C(=O)n2cc(Br)cn2)c1 | 5.1 h |
| Cc1cc([N+](=O)[O-])nn1C(=O)c1ccccc1F | 0.16 h |
| O=C(c1c(F)cccc1F)n1cc(Br)cn1 | 3.1 h |
| Cc1cc(C)n(C(=O)c2ccc(Cl)c([N+](=O)[O-])c2)n1 | 5.6 h |
| COc1cc(C(=O)n2ccc(C)n2)cc(OC)c1OC | 4.2 h |
